This is an account of results in ChEMBL document CHEMBL1201862, “PubChem BioAssay data set” (2004).

The target of one assay is T1, Aminopeptidase N (Plasmodium falciparum FcB1/Columbia, UniProt O96935).
T1 sequence (O96935 whole entry): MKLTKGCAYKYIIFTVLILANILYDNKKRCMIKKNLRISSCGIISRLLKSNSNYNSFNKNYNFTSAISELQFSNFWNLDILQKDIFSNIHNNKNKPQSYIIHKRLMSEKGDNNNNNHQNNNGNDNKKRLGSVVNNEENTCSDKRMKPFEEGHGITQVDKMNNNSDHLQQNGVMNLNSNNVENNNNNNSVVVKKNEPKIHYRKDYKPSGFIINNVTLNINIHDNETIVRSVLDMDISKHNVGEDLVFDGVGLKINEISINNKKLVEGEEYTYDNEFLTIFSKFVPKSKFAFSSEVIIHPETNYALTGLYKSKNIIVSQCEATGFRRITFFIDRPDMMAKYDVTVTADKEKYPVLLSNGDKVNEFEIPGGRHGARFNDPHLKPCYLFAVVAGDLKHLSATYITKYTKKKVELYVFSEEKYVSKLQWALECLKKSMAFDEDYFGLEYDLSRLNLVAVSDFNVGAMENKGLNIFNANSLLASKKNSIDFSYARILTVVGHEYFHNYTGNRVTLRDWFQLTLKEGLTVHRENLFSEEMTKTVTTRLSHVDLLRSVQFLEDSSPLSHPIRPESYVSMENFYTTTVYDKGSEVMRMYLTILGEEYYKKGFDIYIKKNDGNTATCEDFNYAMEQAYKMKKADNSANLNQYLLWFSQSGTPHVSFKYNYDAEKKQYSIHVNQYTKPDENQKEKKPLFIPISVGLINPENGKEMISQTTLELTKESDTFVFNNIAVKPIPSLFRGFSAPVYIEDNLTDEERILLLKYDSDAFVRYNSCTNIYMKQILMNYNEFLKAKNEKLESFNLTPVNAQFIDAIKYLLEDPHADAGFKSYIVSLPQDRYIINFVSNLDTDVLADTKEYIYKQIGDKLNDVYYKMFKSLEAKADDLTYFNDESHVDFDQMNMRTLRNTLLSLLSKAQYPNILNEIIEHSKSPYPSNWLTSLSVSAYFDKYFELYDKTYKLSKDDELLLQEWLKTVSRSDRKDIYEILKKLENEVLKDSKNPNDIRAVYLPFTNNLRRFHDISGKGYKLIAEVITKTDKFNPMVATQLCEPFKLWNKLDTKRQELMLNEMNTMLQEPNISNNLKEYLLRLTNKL
Description: P. falciparum M1AAP inhibitors, biochemical, fluorogenic H-Leu-NHMec substrate, 1536-well (AID 1445). The arrangement: species or system Plasmodium falciparum 3D7, 3D7.

Assay [1] can be described thus: off-target signal loss in HeLa-CEM21 co-culture – HeLa F-luc CTL cells, cherry-picked, counter-screen for HIV-1 Env fusion inhibitor project, dose response (AID 652040).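 Also: potency for signal decrease marking cytotoxic or nonspecific inhibition.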 It counts as functional, cell-based.
A further assay is described as follows: cells. It counts as functional.
A short description of assay [2]: growth suppression of PTEN-null colon cells, dose response, cell-based, HCT116 PTEN knockout (AID 1047).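 Also: HCT116 colon tumor cells with PTEN knocked out; cells exposed to compound for 60 hours before readout; potency for loss of cell viability measured by luminescence.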 It counts as functional.
Assay [3] in a line: growth suppression of beta-catenin-knockout colon cells, dose response, cell-based, HCT116, human colon tumor (AID 1045).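 Also: HCT116 colon tumor cells with beta catenin knocked out; cells exposed to compound for 60 hours.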 It counts as functional.
The nature of assay [4]: THP-1 cell cytotoxicity, dose response, cytotoxicity control for non-replicating M. tuberculosis project (AID 489025). It is filed as functional.
Assay [5] concerns the target Heat shock protein HSP 90-alpha (Homo sapiens, UniProt P07900). It counts as functional, organism-based.
Assay [6] can be described thus: microbe, parasite or virus in culture. It is filed as functional. The note with it: Mycobacterium tuberculosis.
A further assay concerns the target T2, Leucine aminopeptidase (Plasmodium falciparum 3D7, UniProt Q8IL11).
T2 sequence (Q8IL11 whole entry): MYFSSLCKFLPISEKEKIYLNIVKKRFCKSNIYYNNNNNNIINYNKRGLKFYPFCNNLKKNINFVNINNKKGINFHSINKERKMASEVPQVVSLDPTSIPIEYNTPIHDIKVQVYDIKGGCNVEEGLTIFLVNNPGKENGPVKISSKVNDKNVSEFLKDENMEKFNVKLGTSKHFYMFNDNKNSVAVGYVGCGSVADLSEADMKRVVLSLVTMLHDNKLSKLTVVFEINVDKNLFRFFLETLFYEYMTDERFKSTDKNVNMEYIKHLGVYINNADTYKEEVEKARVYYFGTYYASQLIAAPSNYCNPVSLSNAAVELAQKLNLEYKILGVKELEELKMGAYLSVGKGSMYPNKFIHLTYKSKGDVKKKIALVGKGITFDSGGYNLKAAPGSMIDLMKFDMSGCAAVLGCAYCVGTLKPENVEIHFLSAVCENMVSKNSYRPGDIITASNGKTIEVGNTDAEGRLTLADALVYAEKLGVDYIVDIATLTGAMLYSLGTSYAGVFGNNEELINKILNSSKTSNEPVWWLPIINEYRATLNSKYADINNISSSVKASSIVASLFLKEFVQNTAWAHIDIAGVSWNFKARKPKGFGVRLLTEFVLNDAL
Description: P. falciparum M17LAP inhibitors, primary screen, biochemical, fluorogenic H-Leu-NHMec substrate, 1536-well (AID 1619). It is filed as functional.

For a further assay, the system named is Streptococcus. Description: Group A Streptococcus viability loss, dose response, counter-screen for streptokinase expression inhibitor project, luminescence, BacTiterGlo (AID 1915).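 Also: potency for reduction of bacterial viability or growth.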 It is filed as functional, organism-based. In general terms: Counterscreens check selectivity or assay interference.
The target of a further assay is T3, Streptokinase A (Streptococcus pyogenes serotype M1, UniProt P10520).
T3 sequence (P10520 whole entry): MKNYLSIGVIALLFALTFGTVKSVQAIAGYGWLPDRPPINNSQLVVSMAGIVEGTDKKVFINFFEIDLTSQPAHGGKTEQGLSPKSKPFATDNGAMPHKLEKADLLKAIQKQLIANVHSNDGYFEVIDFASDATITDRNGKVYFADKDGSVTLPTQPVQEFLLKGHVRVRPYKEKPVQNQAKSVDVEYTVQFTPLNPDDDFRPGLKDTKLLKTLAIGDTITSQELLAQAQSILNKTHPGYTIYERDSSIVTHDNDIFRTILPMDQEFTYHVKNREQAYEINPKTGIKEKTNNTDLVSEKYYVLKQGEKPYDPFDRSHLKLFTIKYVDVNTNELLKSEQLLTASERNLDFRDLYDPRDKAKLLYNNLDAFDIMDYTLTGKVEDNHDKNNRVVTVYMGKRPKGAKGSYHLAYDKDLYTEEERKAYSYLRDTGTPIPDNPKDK
The experiment in a line: S. pyogenes streptokinase expression inhibitors, potency, dose response, plasminogen activation absorbance, OD405 (AID 1914).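 Also: secreted streptokinase activity via plasminogen activation per viability signal from cell pellet.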 It counts as functional, Streptococcus pyogenes M1 GAS.

Assay [7] has as its system Streptococcus sp. 'group A'. The experiment in a line: growth inhibition of control SK(-) GAS strain, dose response, counter-screen for streptokinase expression inhibitor project, luminescence, kanamycin, BacTiterGlo, confirmation (AID 1900). It counts as functional, organism-based.
Assay [8] is described as follows: inhibitors of clade B AD8 Env fusion, dose response, cell-based, cherry-pick (AID 652062).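 Also: luciferase signal from cell-cell fusion driven by HIV-1 clade B AD8 Env; potency is for inhibitors of fusion seen as a drop in luminescence.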 It is filed as functional.
The nature of assay [9]: inhibitors of HIV Env-driven cell fusion, dose response, cherry-pick (AID 652057). It counts as functional, cell-based.

Activity calls are given as the source filed them.

Regarding `CCOC(=O)CC1C(=O)NCCN1c1nc2c(C)cccn2c(=O)c1/C=C1\SC(=S)N(CC(C)C)C1=O` (centres undefined), at Aminopeptidase N, the IC50 is 42.5 µM (active).

Take `O=C(Nc1cccc(OC(=O)N2CCOCC2)c1)N1CCOCC1`: in assay [1], the AC50 is > 70 µM (inactive).

With `CCCOc1ccc(-c2nc(C#N)c(NCCCn3ccnc3)o2)cc1`, the IC50 in the assay “cells” was 22.4 µM (active). The figures for the EC50 in assay [2] and in assay [3] were 61.8 µM (active) and 10.2 µM (active), respectively. In [4], the CC50 was 27.6 µM (active).

Regarding `COc1ccc(NC2CCN(C3CC(=O)N(c4ccc(F)c(Cl)c4)C3=O)CC2)cc1` (centres undefined), in assay [5], the AC50 is 4.11 µM (active).

For the compound `O=C(Nc1nccs1)c1ccc(COc2ccc(Cl)cc2)o1`, the CC50 in assay [4] was > 40 µM (active).

In the case of `CN(CC(=O)Nc1ccccc1Br)C(=O)c1cccnc1Nc1cccc(C(F)(F)F)c1`, the CC50 in assay [6] is 19.9 µM (active).

As for `Cc1cccc(-c2ncc(CN3CCC(CO)(CCCc4ccccc4)CC3)cn2)c1`, in assay [6], the CC50 was > 40 µM (active).

`O=c1oc2c(CN3CCOCC3)c(O)c(Cl)cc2c2c1CCC2`: the IC50 on Aminopeptidase N was 42.9 µM (active).

As to `CCOC(=O)/C(=C/c1ccc(OC(=O)c2ccccc2)cc1)C(C)=O`, the AC50 in assay [5] was 2.06 µM (active).

`N#Cc1c(-c2ccccc2)nc(SCC(=O)N(c2ccccc2)c2ccccc2)[nH]c1=O`: the IC50 at Aminopeptidase N was 34.3 µM (active).

For the compound `CCOC(=O)C1=C(Nc2ccc(C)cc2)S/C(=C\c2ccc(OCC(=O)O)c(OCC)c2)C1=O`, the IC50 is 48.6 µM (active) at Aminopeptidase N and 15.6 µM (active) on Leucine aminopeptidase.

With `Cc1n[nH]c(C)c1CCOc1ccc(C(C)C)cc1`, in “cells”, the IC50 was 12.2 µM (active). Also, the concentration giving a half-maximal response (EC50) was 43.6 µM (active) in the assay with Streptococcus, > 150 µM (not active) at Streptokinase A and 25.1 µM (active) in assay [7]. The CC50 in [4] was > 40 µM (active).

Turning to `C(=NN=C1c2ccccc2-c2ccccc21)c1c[nH]c2ccccc12`, the AC50 in assay [5] is 5.17 µM (active).

For the compound `C[C@H]1CN([C@@H](C)CO)S(=O)(=O)c2ccc(C3=CCCC3)cc2O[C@H]1CN(C)Cc1ccccc1`, the concentration at half-maximal activity (AC50) in [8] is 25.1 µM (active); in assay [9], 18.5 µM (active).

Regarding `O=C/C(=N\Nc1cccc(C(F)(F)F)c1)C(=O)c1ccccc1`, in [5], the AC50 was 6.15 µM (active).

As usually defined, the IC50 is the concentration that inhibits the measured activity by half. Usually AC50 stands for the concentration giving half of the maximal activity seen. As usually defined, the EC50 is the concentration that produces a half-maximal response.
